{"source": "patent US20150148422A1", "about": "“METHOD FOR […] AND METHOD FOR CLEANING SURFACES” (JSK Capital, LLC, priority 2012, published 2015)", "key": {"Pseudomonas aeruginosa": {"test_system": "Pseudomonas aeruginosa", "assay": "USP <51> antimicrobial effectiveness (challenge) test, P. aeruginosa", "assay_type": "cell-based", "settings": "for Log P. aeruginosa: initial inoculum 2.9 × 10^5 cfu/mL = 5.46; for Log Change (P. aeruginosa), decrease in log 10 of organism from initial spike: initial log 5.46", "source_text": "(§1) See Antimicrobial Test Laboratories description of USP 51 Test."}, "[1]": {"test_system": "Escherichia coli (ATCC 8739)", "assay": "USP <51> antimicrobial effectiveness (challenge) test, E. coli", "assay_type": "cell-based", "settings": "for Log E. coli: initial inoculum 5.0 × 10^5 cfu/mL = 5.70; for Log Change (E. coli), decrease in log 10 of organism from initial spike: initial log 5.70", "source_text": "as §1"}, "[2]": {"test_system": "Candida albicans (ATCC 10231)", "assay": "USP <51> antimicrobial effectiveness (challenge) test, C. albicans", "assay_type": "cell-based", "settings": "for Log C albicans: initial inoculum 9.4 × 10^5 cfu/mL = 5.97; for Log Change (C albicans), decrease in log 10 of organism from initial spike: initial log 5.97", "source_text": "as §1"}, "[3]": {"test_system": "Aspergillus brasiliensis (ATCC 16404)", "assay": "USP <51> antimicrobial effectiveness (challenge) test, A. brasiliensis", "assay_type": "cell-based", "settings": "for Log A brasiliensis: initial inoculum 2.6 × 10^5 cfu/mL = 5.41; for Log Change (A brasiliensis), decrease in log 10 of organism from initial spike: initial log 5.41", "source_text": "as §1"}, "[4]": {"test_system": "Staphylococcus aureus (ATCC 6538P)", "settings": "initial log 5.34", "protocol": "USP 51 challenges (inoculates) a formula with 5 different microorganisms, separately. Three bacteria and two fungal strains are used for each USP 51 test. Test microorganisms are grown in liquid or on solid medium, depending on the microorganism. Microorganisms used for a USP 51 test include: 1) Candida albicans (a yeast which is a form of fungus), 2) Aspergillus brasiliensis (a filamentous mold and also a fungus), 3) Escherichia coli (a bacterium better known as “E. coli”), 4) Pseudomonas aeruginosa (a bacterium that is problematic industrially), and 5) Staphylococcus aureus (a bacterium known as “Staph”).\nThe test microorganisms are either harvested by centrifugation from broth culture or by washing surface growth from a solid medium into a sterile vessel. The concentrations of test microorganisms are standardized by re-suspending harvested microorganisms in sterile saline to yield ˜1×10̂8 CFU/ml. […] A recovery analysis is performed to verify that microorganisms present in a sample can be adequately recovered and enumerated using the chosen dilution and plating scheme. A sufficient volume of test product (typically 10 ml) is distributed into each of 5 separate containers, and each container is inoculated with a separate test microorganism (mentioned above). The initial concentration of viable microorganisms in the test product is determined by standard dilution and plate count methods. […] The microorganism concentration at each interval is compared to the initial concentration, and then preservative effectiveness is determined based upon USP guidelines.\nHere, a USP 51 test was conducted with the following parameters. For preparatory method suitability, validated recovery of organisms using TSB+IAA broth."}}, "note": "Where two headings read alike, the source gives them in different places.", "data": [{"substance": "urea sulfate", "values": [{"measurement": "Log P. aeruginosa", "setting": "Pseudomonas aeruginosa; Day 1", "value": "<1", "unit": "Log"}, {"measurement": "Log Change (P. aeruginosa), decrease in log 10 of organism from initial spike", "setting": "Pseudomonas aeruginosa; Day 1", "value": ">*4.46 log 10"}, {"measurement": "Log P. aeruginosa", "setting": "Pseudomonas aeruginosa; Day 7", "value": "<1", "unit": "Log"}, {"measurement": "Log Change (P. aeruginosa), decrease in log 10 of organism from initial spike", "setting": "Pseudomonas aeruginosa; Day 7", "value": ">*4.46 log 10"}, {"measurement": "Log P. aeruginosa", "setting": "Pseudomonas aeruginosa; Day 14", "value": "<1", "unit": "Log"}, {"measurement": "Log Change (P. aeruginosa), decrease in log 10 of organism from initial spike", "setting": "Pseudomonas aeruginosa; Day 14", "value": ">*4.46 log 10"}, {"measurement": "Log P. aeruginosa", "setting": "Pseudomonas aeruginosa; Day 28", "value": "<1", "unit": "Log"}, {"measurement": "Log Change (P. aeruginosa), decrease in log 10 of organism from initial spike", "setting": "Pseudomonas aeruginosa; Day 28", "value": ">*4.46 log 10"}, {"measurement": "change in the amount of Pseudomonas aeruginosa", "setting": "Pseudomonas aeruginosa; after a month", "value": "no measurable change"}, {"measurement": "Log E. coli", "setting": "[1]; Day 1", "value": "<1", "unit": "Log"}, {"measurement": "Log Change (E. coli), decrease in log 10 of organism from initial spike", "setting": "[1]; Day 1", "value": ">*4.70 log 10"}, {"measurement": "Log E. coli", "setting": "[1]; Day 7", "value": "<1", "unit": "Log"}, {"measurement": "Log Change (E. coli), decrease in log 10 of organism from initial spike", "setting": "[1]; Day 7", "value": ">*4.70 log 10"}, {"measurement": "Log E. coli", "setting": "[1]; Day 14", "value": "<1", "unit": "Log"}, {"measurement": "Log Change (E. coli), decrease in log 10 of organism from initial spike", "setting": "[1]; Day 14", "value": ">*4.70 log 10"}, {"measurement": "Log E. coli", "setting": "[1]; Day 28", "value": "<1", "unit": "Log"}, {"measurement": "Log Change (E. coli), decrease in log 10 of organism from initial spike", "setting": "[1]; Day 28", "value": ">*4.70 log 10"}, {"measurement": "change in the amount of Escherichia coli", "setting": "[1]; after a month", "value": "no measurable change"}, {"measurement": "Log C albicans", "setting": "[2]; Day 1", "value": "<1", "unit": "Log"}, {"measurement": "Log Change (C albicans), decrease in log 10 of organism from initial spike", "setting": "[2]; Day 1", "value": ">*4.97 log 10"}, {"measurement": "Log C albicans", "setting": "[2]; Day 7", "value": "<1", "unit": "Log"}, {"measurement": "Log Change (C albicans), decrease in log 10 of organism from initial spike", "setting": "[2]; Day 7", "value": ">*4.97 log 10"}, {"measurement": "Log C albicans", "setting": "[2]; Day 14", "value": "<1", "unit": "Log"}, {"measurement": "Log Change (C albicans), decrease in log 10 of organism from initial spike", "setting": "[2]; Day 14", "value": ">*4.97 log 10"}, {"measurement": "Log C albicans", "setting": "[2]; Day 28", "value": "<1", "unit": "Log"}, {"measurement": "Log Change (C albicans), decrease in log 10 of organism from initial spike", "setting": "[2]; Day 28", "value": ">*4.97 log 10"}, {"measurement": "change in the amount of Candida albicans", "setting": "[2]; after a month", "value": "no measurable change"}, {"measurement": "Log A brasiliensis", "setting": "[3]; Day 1", "value": "<1", "unit": "Log"}, {"measurement": "Log Change (A brasiliensis), decrease in log 10 of organism from initial spike", "setting": "[3]; Day 1", "value": ">*4.97 log 10"}, {"measurement": "Log A brasiliensis", "setting": "[3]; Day 7", "value": "<1", "unit": "Log"}, {"measurement": "Log Change (A brasiliensis), decrease in log 10 of organism from initial spike", "setting": "[3]; Day 7", "value": ">*4.97 log 10"}, {"measurement": "Log A brasiliensis", "setting": "[3]; Day 14", "value": "<1", "unit": "Log"}, {"measurement": "Log Change (A brasiliensis), decrease in log 10 of organism from initial spike", "setting": "[3]; Day 14", "value": ">*4.97 log 10"}, {"measurement": "Log A brasiliensis", "setting": "[3]; Day 28", "value": "<1", "unit": "Log"}, {"measurement": "Log Change (A brasiliensis), decrease in log 10 of organism from initial spike", "setting": "[3]; Day 28", "value": ">*4.97 log 10"}, {"measurement": "change in the amount of Aspergillus brasiliensis", "setting": "[3]; after a month", "value": "no measurable change"}, {"measurement": "Log Change (S aureus), decrease in log 10 of organism from initial spike", "setting": "[4]; Day 1", "value": ">*4.34 log 10"}, {"measurement": "Log Change (S aureus), decrease in log 10 of organism from initial spike", "setting": "[4]; Day 7", "value": ">*4.34 log 10"}, {"measurement": "Log Change (S aureus), decrease in log 10 of organism from initial spike", "setting": "[4]; Day 14", "value": ">*4.34 log 10"}, {"measurement": "Log Change (S aureus), decrease in log 10 of organism from initial spike", "setting": "[4]; Day 28", "value": ">*4.34 log 10"}]}]}
